Entries after “also recorded” stand apart in the source; their conditions may differ.
Columns and labels:
[1] = test system: IL-2 in Jurkat T cells; assay: IL-2 mRNA / production; format: cell-based; settings: dose response
Experimental: Supernatants from lysed cells were reduced, treated with iodoacetamide to cap thiol residues, and digested by trypsin for bottom‐up proteomics analysis. […] LCK is the direct substrate of SHP1 and ERK1/2, and PLCγ is the downstream effector protein of LCK‐mediated TCR signaling. […] Statistical analyses were performed with Graphpad Prism software 10.4.2 through the one‐way ANOVA test using Turkey post‐hoc comparison. ****p < 0.0001 was considered significant.
To further confirm M029 cellular target engagement, we investigated the effect of M029 on T cell function. SHP1 plays a negative role in T cells, and deletion of SHP1 in T cells lowers the activation threshold and enhances antitumor immunity.^[ [30], [31], [32], [33] ^] Mechanistically, SHP1 attenuates T cell receptor (TCR) signaling via dephosphorylation of the lymphocyte‐specific protein tyrosine kinase LCK.^[ [31], [84], [85], [86] ^] T cell activation leads to increased expression and secretion of interleukin 2 (IL‐2)^[ [87] ^] while the removal of SHP1 in T cells enhances IL‐2 production, cell proliferation, and cytolysis capacity.^[ [30], [32] ^] Accordingly, we sought to assess the impact of targeting SHP1 with M029 on TCR‐LCK signaling and T cell activation. […] M029 also dose‐dependently promoted IL‐2 production (Figure 4c). […] These findings corroborate that the observed increase in LCK phosphorylation and its downstream signaling indeed resulted from SHP1 inhibition by M029.

[2] = test system: MC38 tumors; assay: CD8+ T cell / NK cell depletion in MC38 syngeneic model; format: in vivo, C57BL/6 mice
Source text: To further establish whether the inhibitory effects of M029 on tumor progression could be attributable to enhanced antitumor immune responses, we treated MC38 tumors in nude mice. […] To evaluate the importance of CD8^+ T and NK cells in M029‐induced antitumor activity, we induced CD8^+ T cell or NK cell depletion in the MC38 syngeneic model using anti‐CD8 or anti‐NK1.1 antibodies as described in Figure 6c. […] These findings are consistent with the known role of SHP1 in T cells and with our in vitro data that indicate M029 enhances T cell activation with no direct effect on tumor cells. […] These findings align with previous reports that activated CD8^+ T cells recruit NK cells to tumors through releasing cytokines and chemokines like IFN‐γ.^[ [92] ^] The observed changes in immune activity induced by M029, such as increased tumor infiltration of cytotoxic CD8^+ T cells, enhanced T cell cytotoxicity and effector function, as well as improved NK cell infiltration and activation, collectively contribute to the anticancer effects exerted by M029 treatment.
Figure 6 Cytotoxic T‐cell activity is necessary for M029 antitumor activity. […] C57BL/6 mice were injected with anti‐CD8 or anti‐NK1.1 antibodies every 3–4 days for 8 days after tumor inoculation. Mice were orally dosed with M029 or control vehicle every day for 10 days after tumor inoculation at the same time (Control, n = 4; M029, n = 6; M029 + anti‐NK1.1, n = 6; M029 + anti‐CD8, n = 6). […] This difference implied that the CD8^+ T cells were critical to induce the NK cell infiltration in M029‐treated mice, and the depletion of CD8^+ T cells diminished M029's efficacy because of the absence of activated T cells and infiltrated NK cells. Statistical analyses were performed with Graphpad Prism software 10.4.2 through the student t test or the one‐way ANOVA test using Turkey post‐hoc comparison. *p < 0.05, **p < 0.01, ***p < 0.001, and ****p < 0.0001 were considered significant. Figures are plotted as average ± standard error of the mean (SEM).
Figure S6. Representative flow cytometry results of CD8^+ T/NK cell depletion studies. In the control group and the M029-treated group, CD8^+ T cells make up ~7% of immune cells and NK cells make up ~2% of immune cells. For mice treated with anti-NK1.1 antibody, the NK cell population is negligible (<0.1%). For mice treated with anti-CD8^+ antibody, the CD8^+ T cell population dropped to ~0.1%.
For immune cell profiling in the tumor microenvironment, tumor samples were first reduced to single-cell suspensions by compressing the tumors through a 70 µm filter (Falcon, #352350) into cold 1× PBS supplemented with 5 mM EDTA using the plunger of a syringe (HSW, #4010-200V0). Samples were strained through a second filter and then re-suspended in cold blocking buffer made of 5% BSA, 0.5 mM EDTA, and a 1:1000 dilution of CD16/32. Samples were then incubated with following fluorophore-conjugated antibodies. […]

SMILES: N#Cc1ccsc1NS(=O)(=O)c1ccc(NC(=O)CCl)cc1 [M029, 2-Chloro-N-(4-(N-(3-cyanothiophen-2-yl)sulfamoyl)phenyl)acetamide]
- IL-2 production / relative IL-2 mRNA level [1]: increased; also recorded: promoted
- M029-induced NK cell tumor infiltration after CD8+ T cell depletion ([2]; M029 + anti-CD8): abolishment of the increase in NK cell tumor infiltration
- CD8+ T cell population of immune cells ([2]; flow cytometry, Figure S6): ~ 7%
- NK cell population of immune cells ([2]; flow cytometry, Figure S6): ~ 2%
- antitumor efficacy in CD8+ T-cell-depleted mice ([2]; oral M029 + anti-CD8): no antitumor efficacy; also recorded: completely abolished
- antitumor effects in NK cell-depleted mice ([2]; oral M029 + anti-NK1.1): remained unaffected; also recorded: did not impact

From article PMC12833730, “Discovery of a First‐in‐Class Covalent Allosteric SHP1 Inhibitor with Immunotherapeutic Activity” (Angewandte Chemie (International Ed. in English), 2025)
